The source of these data is patent US20080262235A1, “Method and Apparatus for Producing Oxidized Compound” (priority 2005, published 2008).

Values joined by “and” are separate entries in the source; they are usually repeats but may differ in a detail not shown here. Equal values may be shown once.

Holding throughout (assay type): physicochemical
Data set [1] can be described thus: Test 2: crystal stability by coloration, absorbance (390 nm) of crystals dissolved in dimethylformamide. Particulars: for Absorbance of solution of crystals just after preparation / Absorbance of solution of crystals after stored at 60° C. for 15 days: 1 g crystals in 10 mL dimethylformamide; for Change in Absorbance: after 60° C. for 15 days minus just after preparation. As to the method: In the method according to EXAMPLE 3, the amount of ethanol added to the mixed solution in which the wet crystals of the solvate of ethanol-water of lansoprazole are suspended was changed, and the stability of thus obtained crystals was compared.
The crystals obtained from each of mixed solution systems shown in Table 2 below were each dissolved in dimethylformamide just after the preparation and after stored at 60° C. for 15 days, and the absorbance (390 nm) of thus obtained solutions of crystals was measured. The degree of coloration was compared as an indicator of the crystal stability.
The absorbance of the solution prepared by dissolving 1 g of crystals into 10 mL of dimethylformamide was measured with the use of a spectral photometer (Jasco No. 0214332).
In addition, the pH of each mixed solution in which crystals are suspended was adjusted to about 9 with an aqueous ammonia solution.

Data set [2] is described as follows: Test 1: storage stability of lansoprazole crystals, content by HPLC. Particulars: for Residual ratio after stored for 6 months at 40° C.: [(Content after stored for 6 months at 40° C.)/(Initial Content)]×100; for Initial Content / Content after stored for 6 months at 40° C.: content of lansoprazole in crystals, wt %, HPLC; for Initial Content: before storage. From the text: The stability of the crystals of the solvate of lansoprazole (hereinafter, referred to as lansoprazole (1)) obtained by vacuum drying the wet crystals of the solvate of ethanol-water of lansoprazole obtained according to the method in EXAMPLE 2, was compared to the stability of the white crystals of lansoprazole (hereinafter, referred to as lansoprazole (2)) obtained according to the method in EXAMPLE 3.
Herein, the “content” in Table 1 refers to the content of lansoprazole in lansoprazole crystals expressed in wt %, and was measured by HPLC technique (analyzed under each of following conditions: for (1), Column: NOVA PAK, C18, 3.9×150 mm, Temperature: constant temperature of around 25° C., Mobile phase: solution prepared by adjusting the pH of methanol:water:triethylamine (weight ratio=60:40:1) with phosphoric acid to 7.0, Flow rate: 0.5 ml/min, Detector: UV 285 nm, and for (2), Column: CAPCELL PAC, C18, SG120, 4.6×250 mm, Temperature: constant temperature of around 25° C., Mobile phase: solution prepared by adjusting the pH of acetonitrile:water:triethylamine (weight ratio=40:60:1) with phosphoric acid to 7.0, Flow rate: 1 ml/min, Detector: UV 285 nm). The “residual ratio after stored for 6 months at 40° C.” was calculated by [(Content after stored for 6 months at 40° C.)/(Initial Content)]×100 (%).

Data set [3] in a line: Stability of crystals obtained in Example 2 (statement only).

`Cc1c(OCC(F)(F)F)ccnc1C[S+]([O-])c1nc2ccccc2[nH]1` (racemic) [About 40:1, (+/−)-2-(((3-methyl-4-(2,2,2-trifluoroethoxy)-2-pyridyl)methyl)sulfinyl)benzimidazole]: in data set [1], the “Absorbance of solution of crystals just after preparation” value (shortened to “Absorbance of solution of crystals just”) came to 0.056, the “Absorbance of solution of crystals after stored at 60° C. for 15 days” value (“Absorbance of solution of crystals … for 15 days” for short) was 0.964 and the “Change in Absorbance” value is reported as 0.908.
Regarding `Cc1c(OCC(F)(F)F)ccnc1C[S+]([O-])c1nc2ccccc2[nH]1` (racemic) [About 160:1, (+/−)-2-(((3-methyl-4-(2,2,2-trifluoroethoxy)-2-pyridyl)methyl)sulfinyl)benzimidazole], in data set [1], the “Absorbance of solution of crystals just” value is 0.054, the “Absorbance of solution of crystals … for 15 days” value is listed as 1.135 and the “Change in Absorbance” value is recorded as 1.081.
With `Cc1c(OCC(F)(F)F)ccnc1C[S+]([O-])c1nc2ccccc2[nH]1` (racemic) [Ethanol non-added, (+/−)-2-(((3-methyl-4-(2,2,2-trifluoroethoxy)-2-pyridyl)methyl)sulfinyl)benzimidazole], in data set [1], the “Absorbance of solution of crystals just” value turned out to be 0.046, the “Absorbance of solution of crystals … for 15 days” value was 1.703 and the “Change in Absorbance” value is on record as 1.657.
For `Cc1c(OCC(F)(F)F)ccnc1C[S+]([O-])c1nc2ccccc2[nH]1` (racemic) [lansoprazole (1), (+/−)-2-(((3-methyl-4-(2,2,2-trifluoroethoxy)-2-pyridyl)methyl)sulfinyl)benzimidazole], in data set [2], the “Residual ratio after stored for 6 months at 40° C.” value (shortened to “Residual ratio after stored”) is 91.3% and 84.7% and 86.8%; the “Initial Content” value is 99.2% and 99.3% and 99.1%. The “Content after stored for 6 months at 40° C.” value in data set [2] (6 months at 40° C.) is 90.6% and 84.1% and 86.0%.
`Cc1c(OCC(F)(F)F)ccnc1C[S+]([O-])c1nc2ccccc2[nH]1` (racemic) [lansoprazole (2), (+/−)-2-(((3-methyl-4-(2,2,2-trifluoroethoxy)-2-pyridyl)methyl)sulfinyl)benzimidazole]: in data set [2] (6 months at 40° C.), the “stability of crystal compared to lansoprazole (1)” value was “more excellent stability”; the “Content after stored for 6 months at 40° C.” value is 99.6% and 99.8%. Further, in data set [2], the “Residual ratio after stored” value is recorded as ~100%; the “Initial Content” value was 99.7% and 99.8%. Moreover, the “Residual ratio after stored” value in data set [2] (listed as (2)) was 99.9% and 100.0%.
Regarding `Cc1c(OCC(F)(F)F)ccnc1C[S+]([O-])c1nc2ccccc2[nH]1` (racemic) [lansoprazole I type crystal, (+/−)-2-(((3-methyl-4-(2,2,2-trifluoroethoxy)-2-pyridyl)methyl)sulfinyl)benzimidazole], in data set [3], the “stability of obtained crystals” value is given as “stable”.
